The test system of series [1] is myosin VII positive hair cells. The conditions noted are these: mouse, in vivo.
Experimental: Briefly, mice were treated with an injection of neomycin 10^−3 M into the scala tympani. After 5 days animals were re-anesthetized and 1 μl of Ad.math1.11d (108 pu) were delivered via a fenestration in the posterior semicircular canal. After 4 weeks, animals were sacrificed and then processed for myosin VII immunohistochemistry.
For series [2], the system named is vestibular hair cells. The series can be described thus: Vestibular hair cell counts after intracochlear neomycin and adenovector atoh1 delivery. The conditions noted are these: aminoglycoside (neomycin 10^-3 M, 2 μl into inner ear) only, n=5; untreated controls 21.8+2.
Experimental: Characterization of atoh1/math1 effects were as follows. Unilateral vestibular damage was induced by injecting 2 μl of neomycin (10^−3 M) in to the inner ear of mice. After inducing unilateral vestibular dysfunction mice received an intracochlear injection of an advanced generation adenovector carrying atoh1 driven by a human CMV promoter (Admath1.11D) via the round window membrane into the scala tympani. […] After one month recovery, animals were sacrificed and processed for histology. […] Cells were identified by position of the nucleus and every fifth section was counted and expressed as cell number per 100 μm length of neuroepithelium.
The conditions of series [3]: mouse, in vivo.
Text: As a screening test for balance function, mice were swim tested by dropping them from a fixed height into an opaque pool of water. […] Animals with impaired vestibular function are known to have to prolonged swim times. Mice were swim tested two months after aminoglycoside ablation followed by no treatment or treatment with Ad math1.11D.
In series [4] the test system is mouse saccule and utricle cultures. The series can be described thus: Phage display panning of mouse saccule and utricle cultures, sequencing of colonies. It is filed as binding. The conditions noted are these: colonies with this sequence among one hundred colonies sequenced after four rounds of panning. On the procedure:
C57B1/6 Mice were purchased from Jackson Laboratory (Bar Harbour, Me.). At 8 weeks of age the mice were sacrificed and saccule and utricles were isolated under direct visualization. The cells were cultured in 100 μl DMEM/0.001 M neomycin for 48 hours as is standard. All animal protocols were approved by the University of Kansas animal research advisory committee.
A phage library (New England Biolabs, Beverly, Mass.) displaying random 7-mer peptides attached to the NH2-terminus of the pIII protein of the filamentous M13 bacteriophage was used for panning with mouse inner ear cells. In round 1 of panning, 2×10^11 plaque-forming units of the phage library in 200 μl of 1×PBS buffer were added to the inner ear cells and were incubated for 4 h at 4° C. with shaking. The cells were washed 10× with Tris-buffered saline/0.1% Tween under direct visualization and the remaining bound phage were eluted for 10 min with 100 μl of 0.2 M glycine-HCl, pH 2.2, and neutralized with 15 μl of 1 M Tris-HCl, pH 9. A 10 μl aliquot was used for tittering and the remaining eluate was used to infect early log phase ER2738 host bacteria in 20 ml LB media and amplified for 4.5 h at 37° C. with shaking. Bacteria were removed by pellet centrifugation 2×10 min at 10,000 g. The supernantant was added to ⅙ quantity 20% (w/v) polyethylene glycol-8000, 2.5 M NaCl. After overnight incubation at 4° C., the phage was pelleted by centrifugation at 15 min at 10,000 g, and resuspended in 200 μl TBS. Amplified phage product was tittered on X-gal/IPTG plates. A 10 μl aliquot from the phage pool was used to titer phage pfu/μl before and after phage amplification in E. coli. In subsequent rounds 2×10^11 plaque-forming units of the amplified phage pool from the previous round were added to mouse inner ear cells and panned was performed as previously described. All panning experiments were performed in duplicate.
After 4 rounds of panning, isolated colonies were streak plated on X-gal/IPTG plates. Individual colonies were used to infect early log phase ER2738 host bacteria in 4 ml LB media and amplified for 4.5 h at 37° C. The bacteria was pelleted by centrifugation and phage recovered from the supernatant using QIAprep Spin M13 kit (Qiagen, Valencia, Calif.) and resuspended in 50 μl molecular grade water. ssDNA quantity was determined by absorption spectrophotometry. The 7-mer peptide DNA coding regions were sequenced using a −96 gIII sequencing primer (5′-CCCTCATAGTTAGCGTAACG-3′). These sequences were translated and queried on the BLAST protein database (NCBI).
One hundred colonies were sequenced (Table 1). There were 23 colonies which translated to the peptide sequence t-v-p-q-l-t-t, which was homologous to the protein laminin. Eleven colonies which translated to the peptide sequence s-t-t-k-l-a-l, which was homologous to a sodium/hydrogen exchanger protein. Eight colonies which translated to the peptide sequence m-e-g-y-i-h-r, which was homologous to the protein cathepsin L. Two colonies each that translated to the peptide sequences h-a-i-y-p-r-h, h-s-r-l-l-d-q, i-q-s-p-h-f-f and y-a-a-h-r-s-h, which were homologous to the proteins itchy 3, discs large homolog, protocadherin and myelin transcription factor 1, respectively. The remaining colony sequences occurred only once, however within these sequences, several translated to peptides that had homology to the same protein. For example, a-h-p-h-h-s-m and h-p-h-h-r-i-f both contained the peptide sequence h-p-h-h with homology to mitogen activated protein kinase 8.

Series [5] has as its system Organ of Corti. The series can be described thus: Immunohistochemistry identification of phage binding regions in mouse inner ear (Organ of Corti). In kind it is in vivo. The conditions noted are these: phage 1×10^9 pfu injected into round window of neomycin-treated mice, anti-M13 immunostaining 1 hour after inoculation. On the procedure: (§1) Candidate 7-mer peptide epitopes were selected from the BLAST queried sequences. Colonies were amplified in 20 ml LB media and recovered as previously described. Phage (1×10^9 pfu) were injected into the round window of mice previously treated with 1 μl 0.01 M neomycin injected into the posterior channel 48 hours prior to phage innoculation. Mice were sacrificed by intracardiac perfusion with 4% PBS buffered paraformaldehyde 1 hour after phage inoculation. The temporal bones were isolated and decalcified in Calex (Fisher Scientific, Pittsburgh, Pa.) for 24 hours. The temporal bones were embedded in paraffin and sectioned. Primary antibody directed against the M13 protein (rabbit anti-M13) in 1/100 concentration was added to tissue samples and allowed to incubate for 12 hrs at 4° C. The samples were washed in PBS and incubated with 1/50 concentration fluorescent secondary antibody (goat anti-rabbit, FITC) for 12 hrs at 4° C. After washing, tissue sections were visualized and photographed via fluorescent microscopy.
To determine the potential for identified peptide sequences to bind […] be purified individual batches of phage and injected them into the perilymph via the round window. The animals were allowed to recover and were then fixed via perfusion. Sections of the inner ear were immunostained for the presence phage to determine if the phage had been able to localize to supporting cells in vivo. […] The most common pattern of distribution that was seen was binding to the basement membrane.

Series [6] deals with Macular Organs. Nature of the series: Immunohistochemistry identification of phage binding regions in mouse inner ear (Macular Organs). In kind it is in vivo. The note with it: phage 1×10^9 pfu injected into round window of neomycin-treated mice, anti-M13 immunostaining 1 hour after inoculation. On the procedure:
as §1
To determine the potential for identified peptide sequences to bind in vitro be purified individual batches of phage and injected them into the perilymph via the round window. The animals were allowed to recover and were then fixed via perfusion. […]

No end group written: not given here.

In the case of `NC[C@@H]1O[C@H](O[C@H]2[C@@H](O)[C@H](O[C@@H]3[C@@H](O)[C@H](N)C[C@H](N)[C@H]3O[C@H]3O[C@H](CN)[C@@H](O)[C@H](O)[C@H]3N)O[C@@H]2CO)[C@H](N)[C@@H](O)[C@@H]1O` [aminoglycoside, neomycin], the “myosin VII positive cells in macular organs” value in series [1] is reported as “only occasional myosin VII positive cells”. Besides, the “average hair cell counts, serially sectioned saccules” value in series [2] was 2.2+2 /100 μm. Besides, the “swim time (time to initiate purposeful swimming)” value in series [3] is 22+4.2 seconds.

Consider “ALQYHNL [phage pIII NH2 terminal 7 amino acid peptide]”, for which the “# of Common Sequences” value in series [4] came out at 1. In series [5], the “Phage binding site, Organ of Corti” value is “No binding”.

Turning to “HPHHRIF [phage pIII NH2 terminal 7 amino acid peptide]”, in series [4], the “# of Common Sequences” value is listed as 1. Further, the “Phage binding site, Organ of Corti” value in series [5] was “No binding”.

As for “HisAlaIleTyrProArgHis (HAIYPRH; printed: HisAlaIleTyrProArgHis) [phage pIII NH2 terminal 7 amino acid peptide]”, the “# of Common Sequences” value in series [4] is 2.

With “MPIPRPP [phage pIII NH2 terminal 7 amino acid peptide]”, the “# of Common Sequences” value in series [4] is listed as 1.

As to PPRPIPM, the “Phage binding site, Organ of Corti” value in series [5] was “No binding”.

For the compound ProThrProMeThrLeuTyr, in series [6], the “Phage binding site, Macular Organs” value was “No binding”.

As for “SEGRLYK [phage pIII NH2 terminal 7 amino acid peptide]”, in series [4], the “# of Common Sequences” value is 1. Moreover, in series [5], the “Phage binding site, Organ of Corti” value is “No binding”.

For the compound “SNQLLMT [phage pIII NH2 terminal 7 amino acid peptide]”, the “# of Common Sequences” value in series [4] was 1. In addition, in series [5], the “Phage binding site, Organ of Corti” value is recorded as “No binding”.

With “STTKLAL [phage pIII NH2 terminal 7 amino acid peptide]”, the “# of Common Sequences” value in series [4] was determined as 11. In series [5], the “Phage binding site, Organ of Corti” value is given as “No binding”.

In the case of “THQARSV [phage pIII NH2 terminal 7 amino acid peptide]”, the “# of Common Sequences” value in series [4] is on record as 1. Also, the “Phage binding site, Organ of Corti” value in series [5] is “No binding”.

In the case of “ahphhsm: phage pIII NH2 terminal 7 amino acid peptide (AHPHHSM)”, the “# of Common Sequences” value in series [4] is given as 1.

getrapl: the “# of Common Sequences” value in series [4] came to 1.

Turning to “hsrlldq: phage pIII NH2 terminal 7 amino acid peptide (HSRLLDQ)”, the “# of Common Sequences” value in series [4] was determined as 2.

Consider “iqsphff: phage pIII NH2 terminal 7 amino acid peptide (IQSPHFF)”, for which the “# of Common Sequences” value in series [4] came out at 2.

With “megyihr: phage pIII NH2 terminal 7 amino acid peptide (MEGYIHR)”, the “# of Common Sequences” value in series [4] is given as 8.

For the compound “tvpqltt: phage pIII NH2 terminal 7 amino acid peptide (TVPQLTT)”, in series [4], the “# of Common Sequences” value was 23.

For the compound “yaahrsh: phage pIII NH2 terminal 7 amino acid peptide (YAAHRSH)”, the “# of Common Sequences” value in series [4] is 2.
